Experimental data reported in article PMC5218480 (PLoS ONE, 2017).

System: MV-4-11 cells
Test: Gene expression microarray analysis (Affymetrix PrimeView) and GSEA
Format: cell-based, human
Design: RFU PODN (11730768_x_at) / Fold change /veh PODN (11730768_x_at) / RFU LINC00158 (11744669_a_at) / Fold change /veh LINC00158 (11744669_a_at) / RFU DUSP10 (11751237_a_at) / Fold change /veh DUSP10 (11751237_a_at) / RFU ID3 (11757404_x_at) / Fold change /veh ID3 (11757404_x_at) / RFU PLEKHG5 (11737974_s_at) / Fold change /veh PLEKHG5 (11737974_s_at) / RFU LRRC4B (11730491_at) / Fold change /veh LRRC4B (11730491_at) / RFU GIMAP4 (11747438_a_at) / Fold change /veh GIMAP4 (11747438_a_at) / RFU KRT8 (11758183_x_at) / Fold change /veh KRT8 (11758183_x_at) / RFU CNN1 (11734310_a_at) / Fold change /veh CNN1 (11734310_a_at) / RFU VPS37D (11726825_at) / Fold change /veh VPS37D (11726825_at) / RFU C10orf10 (11716522_x_at) / Fold change /veh C10orf10 (11716522_x_at) / RFU KIR2DL2 /// KIR2DL4 /// KIR2DL5A /// KIR2DL5B /// KIR2DS1 /// KIR2DS2 /// KIR2DS3 /// KIR2DS4 /// KIR3DL3 /// KIR3DL3 /// KIR3DS1 (11738374_at) / Fold change /veh KIR2DL2 /// KIR2DL4 /// KIR2DL5A /// KIR2DL5B /// KIR2DS1 /// KIR2DS2 /// KIR2DS3 /// KIR2DS4 /// KIR3DL3 /// KIR3DL3 /// KIR3DS1 (11738374_at) / RFU C1QL1 (11718748_at) / Fold change /veh C1QL1 (11718748_at) / RFU TMPRSS4 (11747572_a_at) / Fold change /veh TMPRSS4 (11747572_a_at) / RFU HAMP (11756126_x_at) / Fold change /veh HAMP (11756126_x_at) / RFU RNFT2 (11725882_a_at) / Fold change /veh RNFT2 (11725882_a_at) / RFU NR4A2 (11747474_a_at) / Fold change /veh NR4A2 (11747474_a_at) / RFU ABCC12 (11746883_a_at) / Fold change /veh ABCC12 (11746883_a_at) / RFU TMEM136 (11760407_x_at) / Fold change /veh TMEM136 (11760407_x_at) / RFU CLDN22 /// WWC2 (11732394_at) / Fold change /veh CLDN22 /// WWC2 (11732394_at) / RFU HLA-DPB1 (11760878_x_at) / Fold change /veh HLA-DPB1 (11760878_x_at) / RFU SPINT1 (11716480_a_at) / Fold change /veh SPINT1 (11716480_a_at) / RFU GAP43 (11754022_s_at) / Fold change /veh GAP43 (11754022_s_at) / RFU A4GNT (11735810_at) / Fold change /veh A4GNT (11735810_at) / RFU PRB3 (11715151_x_at) / Fold change /veh PRB3 (11715151_x_at) / RFU TUBB4B (11761932_at) / Fold change /veh TUBB4B (11761932_at) / RFU CAPN14 (11732068_a_at) / Fold change /veh CAPN14 (11732068_a_at) / RFU TMCC2 (11721928_a_at) / Fold change /veh TMCC2 (11721928_a_at) / RFU IRGQ (11745062_a_at) / Fold change /veh IRGQ (11745062_a_at) / RFU FAM174B (11720279_a_at) / Fold change /veh FAM174B (11720279_a_at) / RFU TMPRSS4 (11748680_a_at) / Fold change /veh TMPRSS4 (11748680_a_at) / RFU FAM212B (11763350_a_at) / Fold change /veh FAM212B (11763350_a_at) / RFU PLEKHG5 (11743358_a_at) / Fold change /veh PLEKHG5 (11743358_a_at) / RFU ZSCAN30 (11745921_a_at) / Fold change /veh ZSCAN30 (11745921_a_at) / RFU CMKLR1 (11741424_a_at) / Fold change /veh CMKLR1 (11741424_a_at) / RFU LOC101060620 /// MAPK8IP1 (11723275_at) / Fold change /veh LOC101060620 /// MAPK8IP1 (11723275_at) / RFU SPTSSB (11747773_x_at) / Fold change /veh SPTSSB (11747773_x_at) / RFU PRSS12 (11739890_at) / Fold change /veh PRSS12 (11739890_at) / RFU BIN1 (11741810_x_at) / Fold change /veh BIN1 (11741810_x_at) / RFU WNT11 (11732464_a_at) / Fold change /veh WNT11 (11732464_a_at) / RFU C10orf10 (11716521_a_at) / Fold change /veh C10orf10 (11716521_a_at) / RFU C5orf56 (11738089_at) / Fold change /veh C5orf56 (11738089_at) / RFU CYB561 (11721691_x_at) / Fold change /veh CYB561 (11721691_x_at) / RFU ANKRD19P (11752326_a_at) / Fold change /veh ANKRD19P (11752326_a_at) / RFU OR2T12 /// OR2T33 /// OR2T8 (11738714_s_at) / Fold change /veh OR2T12 /// OR2T33 /// OR2T8 (11738714_s_at) / RFU VCAN (11748164_a_at) / Fold change /veh VCAN (11748164_a_at) / RFU JSRP1 (11732532_at) / Fold change /veh JSRP1 (11732532_at) / RFU KRTAP10-11 (11738290_x_at) / Fold change /veh KRTAP10-11 (11738290_x_at) / RFU MYO3A (11730013_a_at) / Fold change /veh MYO3A (11730013_a_at) / RFU EBF3 (11725865_a_at) / Fold change /veh EBF3 (11725865_a_at) / RFU CAMK2N1 (11719241_x_at) / Fold change /veh CAMK2N1 (11719241_x_at) / RFU C5orf56 (11738088_a_at) / Fold change /veh C5orf56 (11738088_a_at) / RFU OLFML3 (11715873_a_at) / Fold change /veh OLFML3 (11715873_a_at) / RFU LOC100653217 /// NTM (11731650_a_at) / Fold change /veh LOC100653217 /// NTM (11731650_a_at) / RFU MAPK11 (11762145_a_at) / Fold change /veh MAPK11 (11762145_a_at) / RFU FIZ1 (11724087_x_at) / Fold change /veh FIZ1 (11724087_x_at) / RFU OASL (11726364_x_at) / Fold change /veh OASL (11726364_x_at) / RFU SOX15 (11748057_x_at) / Fold change /veh SOX15 (11748057_x_at) / RFU CD79A (11719716_a_at) / Fold change /veh CD79A (11719716_a_at) / RFU HIST1H1D (11736915_at) / Fold change /veh HIST1H1D (11736915_at) / RFU CASKIN2 (11723855_a_at) / Fold change /veh CASKIN2 (11723855_a_at) / RFU LOC730098 (11760151_x_at) / Fold change /veh LOC730098 (11760151_x_at) / RFU OR4N2 (11742367_at) / Fold change /veh OR4N2 (11742367_at) / RFU PRRT2 (11749266_a_at) / Fold change /veh PRRT2 (11749266_a_at) / RFU SNX32 (11753110_a_at) / Fold change /veh SNX32 (11753110_a_at) / RFU CDHR5 (11726645_a_at) / Fold change /veh CDHR5 (11726645_a_at) / RFU RCAN1 (11760418_a_at) / Fold change /veh RCAN1 (11760418_a_at) / RFU FAM167A (11723789_a_at) / Fold change /veh FAM167A (11723789_a_at) / RFU FAM26E (11764081_at) / Fold change /veh FAM26E (11764081_at) / RFU ISYNA1 (11749810_s_at) / Fold change /veh ISYNA1 (11749810_s_at) / RFU ACY1 (11761880_at) / Fold change /veh ACY1 (11761880_at) / RFU 11764098_at / Fold change /veh 11764098_at / RFU SAMD14 (11745864_x_at) / Fold change /veh SAMD14 (11745864_x_at) / RFU NPB (11741838_a_at) / Fold change /veh NPB (11741838_a_at) / RFU TMPRSS6 (11731388_a_at) / Fold change /veh TMPRSS6 (11731388_a_at) / RFU KRTAP10-2 (11738614_at) / Fold change /veh KRTAP10-2 (11738614_at) / RFU ARHGAP8 /// PRR5-ARHGAP8 (11727945_x_at) / Fold change /veh ARHGAP8 /// PRR5-ARHGAP8 (11727945_x_at) / RFU KRTAP5-7 /// NADSYN1 (11734609_at) / Fold change /veh KRTAP5-7 /// NADSYN1 (11734609_at) / RFU RASL12 (11751679_a_at) / Fold change /veh RASL12 (11751679_a_at) / RFU CDKN2B (11736163_a_at) / Fold change /veh CDKN2B (11736163_a_at) / RFU PRF1 (11729649_at) / Fold change /veh PRF1 (11729649_at) / RFU, ZNF638 /// ZNF638-IT1 / Fold change vs veh, ZNF638 /// ZNF638-IT1 / RFU, PANK3 / Fold change vs veh, PANK3 / RFU, SH3YL1 / Fold change vs veh, SH3YL1 / RFU, ZEB2 / Fold change vs veh, ZEB2 / RFU, NRIP1 / Fold change vs veh, NRIP1 / RFU, PTTG1IP / Fold change vs veh, PTTG1IP / RFU, CAPN2 / Fold change vs veh, CAPN2 / RFU, MED14 / Fold change vs veh, MED14 / RFU, SNORA58 / Fold change vs veh, SNORA58 / RFU, C1orf63 / Fold change vs veh, C1orf63 / RFU, LRRFIP1 / Fold change vs veh, LRRFIP1 / RFU, NDUFAF7 / Fold change vs veh, NDUFAF7 / RFU, SLC12A2 / Fold change vs veh, SLC12A2 / RFU, IBTK / Fold change vs veh, IBTK / RFU, ESF1 / Fold change vs veh, ESF1 / Fold change vs veh, TMEM50B / RFU, TAOK1 / Fold change vs veh, TAOK1 / RFU, ACBD3 / Fold change vs veh, ACBD3 / RFU, TMA16 / Fold change vs veh, TMA16 / RFU, RWDD3 / Fold change vs veh, RWDD3 / RFU, BCAT1 / Fold change vs veh, BCAT1 / RFU, EDEM3 / Fold change vs veh, EDEM3 / RFU, TMEM33 / Fold change vs veh, TMEM33 / RFU, WDR75 / Fold change vs veh, WDR75 / RFU, AHCTF1 / Fold change vs veh, AHCTF1 / RFU, TFRC / Fold change vs veh, TFRC / RFU, ZDHHC17 / Fold change vs veh, ZDHHC17 / RFU, NOM1 / Fold change vs veh, NOM1 / RFU, ARL8B / Fold change vs veh, ARL8B / RFU, ZBTB11 / Fold change vs veh, ZBTB11 / RFU, TAMM41 / Fold change vs veh, TAMM41 / RFU, KIAA1704 /// LOC100996395 / Fold change vs veh, KIAA1704 /// LOC100996395 / RFU, ING1 / Fold change vs veh, ING1 / RFU, TRMT61B / Fold change vs veh, TRMT61B / RFU, FUBP3 / Fold change vs veh, FUBP3 / RFU, TP53 / Fold change vs veh, TP53 / RFU, TNKS2 / Fold change vs veh, TNKS2 / RFU, ZFP14 / Fold change vs veh, ZFP14 / RFU, ACTR2 / Fold change vs veh, ACTR2 / RFU, PPP3R1 / Fold change vs veh, PPP3R1 / RFU, PIK3R1 / Fold change vs veh, PIK3R1 / RFU, HNRNPA1 / Fold change vs veh, HNRNPA1 / RFU, RNF170 / Fold change vs veh, RNF170 / RFU, ZNF28 / Fold change vs veh, ZNF28 / RFU, RNGTT / Fold change vs veh, RNGTT / RFU, OGT / Fold change vs veh, OGT / RFU, BRD1 / Fold change vs veh, BRD1 / RFU, MARS / Fold change vs veh, MARS / RFU, ZNF655 / Fold change vs veh, ZNF655 / RFU, FAHD1 / Fold change vs veh, FAHD1 / RFU, BDP1 / Fold change vs veh, BDP1 / RFU, LRRCC1 / Fold change vs veh, LRRCC1 / RFU, ARID1A / Fold change vs veh, ARID1A / RFU, ZNF146 / Fold change vs veh, ZNF146 / RFU, ZNF330 / Fold change vs veh, ZNF330 / RFU, GPN3 / Fold change vs veh, GPN3 / RFU, C9orf123 / Fold change vs veh, C9orf123 / RFU, N4BP2L2 / Fold change vs veh, N4BP2L2 / RFU, ARFIP1 / Fold change vs veh, ARFIP1 / RFU, FAM179B / Fold change vs veh, FAM179B / RFU, BCL10 / Fold change vs veh, BCL10 / RFU, UHRF1BP1L / Fold change vs veh, UHRF1BP1L / RFU, BET1 / Fold change vs veh, BET1 / RFU, CNOT2 / Fold change vs veh, CNOT2 / RFU, ZNF268 / Fold change vs veh, ZNF268 / Fold change vs veh, ZNF507 / RFU, DGCR2 / Fold change vs veh, DGCR2 / RFU, WDSUB1 / Fold change vs veh, WDSUB1 / Fold change vs veh, HSP90B1 /// MIR3652 / RFU, ADSS / Fold change vs veh, ADSS / RFU, GK / Fold change vs veh, GK / RFU, ZNF148 / Fold change vs veh, ZNF148 / RFU, TAF9 / Fold change vs veh, TAF9 / RFU, SLC1A5 / Fold change vs veh, SLC1A5 / RFU, SLMO2 / Fold change vs veh, SLMO2 / RFU, ABCC4 / Fold change vs veh, ABCC4 / RFU, LOC101060439 /// RAP1B / Fold change vs veh, LOC101060439 /// RAP1B / RFU, RFX7 / Fold change vs veh, RFX7 / RFU, GTPBP10 / Fold change vs veh, GTPBP10 / RFU, CNEP1R1 / Fold change vs veh, CNEP1R1 / RFU, BIVM-ERCC5 /// ERCC5 / Fold change vs veh, BIVM-ERCC5 /// ERCC5 / RFU, ILF3 / Fold change vs veh, ILF3 / RFU 11762660_at / Fold change /veh 11762660_at / RFU VCAN (11757783_s_at) / Fold change /veh VCAN (11757783_s_at) / RFU DDX43 (11728927_at) / Fold change /veh DDX43 (11728927_at) / RFU KRT8 (11758188_x_at) / Fold change /veh KRT8 (11758188_x_at) / RFU NKD1 (11759106_at) / Fold change /veh NKD1 (11759106_at) / RFU SRD5A1 (11742802_a_at) / Fold change /veh SRD5A1 (11742802_a_at) / RFU TPSAB1 /// TPSB2 (11721975_s_at) / Fold change /veh TPSAB1 /// TPSB2 (11721975_s_at) / RFU GSTM3 (11746129_a_at) / Fold change /veh GSTM3 (11746129_a_at) / RFU IL23R (11737362_x_at) / Fold change /veh IL23R (11737362_x_at) / RFU TMEM51 (11727254_a_at) / Fold change /veh TMEM51 (11727254_a_at) / RFU PIWIL2 (11732686_x_at) / Fold change /veh PIWIL2 (11732686_x_at) / RFU ORM1 (11744905_x_at) / Fold change /veh ORM1 (11744905_x_at) / RFU CCDC152 (11743942_at) / Fold change /veh CCDC152 (11743942_at) / RFU ECM1 (11717891_a_at) / Fold change /veh ECM1 (11717891_a_at) / RFU IL23R (11748794_a_at) / Fold change /veh IL23R (11748794_a_at) / RFU TNFAIP8L3 (11732012_x_at) / Fold change /veh TNFAIP8L3 (11732012_x_at) / RFU MBOAT4 (11741988_at) / Fold change /veh MBOAT4 (11741988_at) / RFU 11764193_at / Fold change /veh 11764193_at / RFU TMEM53 (11763286_at) / Fold change /veh TMEM53 (11763286_at) / RFU MAGEB2 (11727129_at) / Fold change /veh MAGEB2 (11727129_at) / RFU TMEM200A (11744735_a_at) / Fold change /veh TMEM200A (11744735_a_at) / RFU CCDC152 (11751479_a_at) / Fold change /veh CCDC152 (11751479_a_at) / RFU FAM211A (11726209_a_at) / Fold change /veh FAM211A (11726209_a_at) / RFU RGS16 (11746705_a_at) / Fold change /veh RGS16 (11746705_a_at) / RFU VCAN (11755009_s_at) / Fold change /veh VCAN (11755009_s_at) / RFU RHOB (11743442_s_at) / Fold change /veh RHOB (11743442_s_at) / RFU RGS16 (11720943_a_at) / Fold change /veh RGS16 (11720943_a_at) / RFU RGS16 (11720944_at) / Fold change /veh RGS16 (11720944_at) / RFU, VPS4B / Fold change vs veh, VPS4B / RFU, CREB1 / Fold change vs veh, CREB1 / RFU, DNAJC13 / Fold change vs veh, DNAJC13 / RFU, GNAQ / Fold change vs veh, GNAQ / RFU, CDK5R1 / Fold change vs veh, CDK5R1 / RFU, ZRANB3 / Fold change vs veh, ZRANB3 / RFU, CUL4A / Fold change vs veh, CUL4A / RFU, CCNY / Fold change vs veh, CCNY / RFU, UFL1 / Fold change vs veh, UFL1 / RFU, COG3 / Fold change vs veh, COG3 / RFU, DIAPH2 / Fold change vs veh, DIAPH2 / RFU, SKA2 / Fold change vs veh, SKA2 / RFU, AFF3 / Fold change vs veh, AFF3 / RFU, LMF1 / Fold change vs veh, LMF1 / RFU, IPO11 / Fold change vs veh, IPO11 / RFU, DFFB / Fold change vs veh, DFFB / RFU, FOXP1 / Fold change vs veh, FOXP1 / RFU, CARD8 / Fold change vs veh, CARD8 / RFU, STRN3 / Fold change vs veh, STRN3 / RFU, ADK / Fold change vs veh, ADK / RFU, RASSF2 / Fold change vs veh, RASSF2 / RFU, WIPF1 / Fold change vs veh, WIPF1 / RFU, LARP1B / Fold change vs veh, LARP1B / RFU, RASA1 / Fold change vs veh, RASA1 / RFU, RB1 / Fold change vs veh, RB1 / RFU, PPFIA1 / Fold change vs veh, PPFIA1 / RFU, MAT2A / Fold change vs veh, MAT2A / RFU, CCT5 / Fold change vs veh, CCT5 / RFU, WDR92 / Fold change vs veh, WDR92 / RFU, CUX1 / Fold change vs veh, CUX1 / RFU, TTC7A / Fold change vs veh, TTC7A / RFU, TMEM135 / Fold change vs veh, TMEM135 / RFU, DEPTOR / Fold change vs veh, DEPTOR / RFU, CPM / Fold change vs veh, CPM / RFU, DNAJB6 / Fold change vs veh, DNAJB6 / RFU, CACNA2D3 / Fold change vs veh, CACNA2D3 / RFU, DTX4 / Fold change vs veh, DTX4 / RFU, TFCP2 / Fold change vs veh, TFCP2 / RFU, GMCL1 /// GMCL1P1 / Fold change vs veh, GMCL1 /// GMCL1P1 / RFU, AEBP2 / Fold change vs veh, AEBP2 / RFU, SNHG1 /// SNORD22 /// SNORD25 /// SNORD26 /// SNORD27 /// SNORD28 /// SNORD29 /// SNORD31 / Fold change vs veh, SNHG1 /// SNORD22 /// SNORD25 /// SNORD26 /// SNORD27 /// SNORD28 /// SNORD29 /// SNORD31 / Fold change (Aza/veh), C12orf56 (ProbeSet 11735607_a_at) / Fold change (ACY-1035/veh), C12orf56 (ProbeSet 11735607_a_at) / Fold change (Aza/veh), FGFR1OP (ProbeSet 11751329_s_at) / Fold change (ACY-1035/veh), FGFR1OP (ProbeSet 11751329_s_at) / Fold change (Aza/veh), VPS36 (ProbeSet 11739960_a_at) / Fold change (ACY-1035/veh), VPS36 (ProbeSet 11739960_a_at) / RFU SYPL1 (11715823_x_at) / Fold change /veh SYPL1 (11715823_x_at) / RFU IGFBP7 (11715501_s_at) / Fold change /veh IGFBP7 (11715501_s_at) / RFU REEP3 (11722064_at) / Fold change /veh REEP3 (11722064_at) / RFU IGLL1 (11728026_x_at) / Fold change /veh IGLL1 (11728026_x_at): dose or concentration left out as unconfirmed
Conditions: MV-4-11 cells, 48 hours

**Q.** For `Nc1ncn([C@@H]2O[C@H](CO)[C@@H](O)[C@H]2O)c(=O)n1` [azacitidine], which “Fold change /veh SYPL1 (11715823_x_at)” value is on record?
**A.** 0.82
